The values below are quoted from earlier work in patent US6623775B2, “Treating or preventing illness growth of Clostridium difficile” (S.S. Steiner, Inc., priority 1997, dated 2003).

For the series the following is noted: degree of ionization taken into account.

With `CC(C)=CCC(=O)[C@@]1(O)C(O)=C(C(=O)CC(C)C)C(=O)[C@H]1CC=C(C)C` (relative stereo) [trans-isohumulone], the “Antibacterial activity relative to colupulone” value is recorded as 11 times, the “Antibacterial activity relative to humulone” value is reported as “about 20 times” and the “Antibacterial activity relative to trans-humulinic acid” value is reported as “nine”.
